Reference: patent publication US20260034146A1, “NEUROACTIVE 19-ALKOXY-17-S[…], PRODRUGS THEREOF, AND METHODS OF TREATMENT USING SAME” (priority 2012, published 2026)

Columns and labels:
[1] = molecular target: rat α1β2γ2L type GABAA receptors expressed in Xenopus laevis oocytes (Rattus norvegicus (Rat), UniProt P62813+P63138, INS375LLRMFSFK); assay: Oocyte electrophysiology: potentiation of chloride currents mediated by 2 μM GABA, and direct gating; format: cell-based; settings: ± SEM; for oocyte electrophysiology, ratio of currents in presence/absence of compound, 0.1 μM: 0.1 μM compound; for oocyte electrophysiology, ratio of currents in presence/absence of compound, 0.1 μM / oocyte electrophysiology, ratio of currents in presence/absence of compound, 1 μM / oocyte electrophysiology, ratio of currents in presence/absence of compound, 10 μM: 2 μM GABA control, N≥4 oocytes; for oocyte electrophysiology, ratio of currents in presence/absence of compound, 1 μM: 1 μM compound; for oocyte electrophysiology, ratio of currents in presence/absence of compound, 10 μM: 10 μM compound; for (gating) 10 μM, ratio of compound only current/2 μM GABA current: direct current gated by 10 μM compound in the absence of GABA, N≥4
Protocol: The compounds of the present disclosure were evaluated for the ability to potentiate chloride currents mediated by 2 μM GABA at rat α1β2γ2L type GABAA receptors expressed in Xenopus laevis oocytes and the results are shown in Table 2.
The GABA concentration used for the control response was 2 μM. Each compound was evaluated on at least four different oocytes at the concentrations indicated, and the results reported are the ratio of currents measured in the presence/absence of added compound. Gating represents direct current gated by 10 μM compound in the absence of GABA, and this current is reported as the ratio of compound only current/2 μM GABA current. Error limits are calculated as standard error of the mean (N≥4). Methods used are known in the art (see Jiang, X., et al.).

[2] = molecular target: picrotoxin binding site on GABAA receptors; assay: [35S]-TBPS displacement (inhibition of [35S]-TBPS binding); settings: duplicate experiments performed in triplicate; ± standard error of the mean
Protocol: The IC50 values for non-competitive displacers of [^35S]-TBPS from the picrotoxin binding site on GABAA receptors are reported in Table 1.
^aResults presented are from duplicate experiments performed in triplicate. Error limits are calculated as standard error of the mean. Methods used are known in the art (see Jiang, X., et al., Neurosteroid analogues. 9. Conformationally constrained pregnanes: structure-activity studies of 13,24-cyclo-18,21-dinorcholane analogues of the GABA modulatory and anesthetic steroids (3α,5α)- and […]. J. Med. Chem., 46: 5334-48 (2003)—the contents of which are hereby incorporated by reference in their entirety).

Tadpole = Tadpole loss of righting reflex (LRR) and loss of swimming reflex (LSR); format: in vivo; settings: N=10 or more animals at each of five or more concentrations, ± SEM; for Tadpole LRR EC50 (μM): loss of righting reflex; for Tadpole LSR EC50 (μM): loss of swimming reflex
Protocol: Table 3 discloses the anesthetic effects of the compounds of the present disclosure. In particular, the anesthetic effect of the compounds of the present disclosure on Loss of Righting Reflex (LRR) and Loss of Swimming Reflex (LSR).
Methods used are known in the art (see Jiang, X., et al.). Error limits are calculated as standard error of the mean (N=10 or more animals at each of five or more different concentrations).

male Sprague Dawley rats = assay: Rat loss of righting reflex (LRR), intravenous bolus; format: in vivo
Protocol: The plasma pharmacokinetics and a qualitative assessment of sedation were obtained in male Sprague Dawley rats according to the following procedure. Rats were dosed by intravenous bolus dose (60 seconds) via the foot dorsal vein at doses ranging from 5 to 15 mg/kg in an appropriate vehicle. In order to assess sedation, rats were gently restrained by hand to a lateral position for dose administration. […] If the animal was unable to return to an upright position, the time was recorded as the onset of loss of righting reflex (LRR). […] Sluggish or incomplete righting twice consecutively within a 30 second interval qualifies as a loss of righting reflex. After onset of LRR, animals were assessed every 5 minutes in the same manner. Recovery of righting reflex is defined as the ability of a rat to right itself completely within 20 seconds of being placed in dorsal recumbency. The duration of LRR is defined as the time interval between LRR and the return of righting reflex.

male beagle dogs = assay: Dog duration of lateral recumbence, intravenous bolus; format: in vivo; settings: dog dose 5 mg/kg
Protocol: The plasma pharmacokinetics and a qualitative assessment of sedation were obtained in male beagle dogs according to the following procedure. Dogs were dosed by intravenous bolus dose (60 seconds) via the cephalic vein at 5 mg/kg dose in an appropriate vehicle. In order to assess sedation, dogs were gently restrained for dose administration. If decreased muscle tone, limb weakness, or head drop was observed during dose administration, onset of lateral recumbence was recorded. […] Sluggish or incomplete righting to the sternal position qualifies as lateral recumbence. After onset of lateral recumbence, animals were assessed every 5 minutes in the same manner. The duration of lateral recumbence was recorded as the time interval between onset of lateral recumbence and the return to sternal position.

COC[C@]12CCC(=O)C[C@@H]1CC[C@H]1[C@@H]3CC[C@H](OC)[C@@]3(C)CC[C@@H]12 [7, MQ-88, (5α,17β)-17,19-Dimethoxyandrostan-3-one]
oocyte electrophysiology, ratio of currents in presence/absence of compound, 0.1 μM [1]: 1.00 ± 0 | oocyte electrophysiology, ratio of currents in presence/absence of compound, 1 μM [1]: 0.85 ± 0.01 | oocyte electrophysiology, ratio of currents in presence/absence of compound, 10 μM [1]: 1.07 ± 0.02 | (gating) 10 μM, ratio of compound only current/2 μM GABA current [1]: 0.04 ± 0.03 | IC50 [2]: 8700 nM

COC[C@]12CCC(=O)C=C1CC[C@@H]1[C@@H]2CC[C@]2(C)[C@@H](OC)CC[C@@H]12 [24, MQ-99, (17β)-17,19-Dimethoxyandrost-4-en-3-one]
oocyte electrophysiology, ratio of currents in presence/absence of compound, 0.1 μM [1]: 0.88 ± 0.08 | oocyte electrophysiology, ratio of currents in presence/absence of compound, 1 μM [1]: 0.63 ± 0.06 | oocyte electrophysiology, ratio of currents in presence/absence of compound, 10 μM [1]: 1.06 ± 0.17 | (gating) 10 μM, ratio of compound only current/2 μM GABA current [1]: 0.11 ± 0.17 | Tadpole LRR EC50 (μM) (Tadpole): None | Tadpole LSR EC50 (μM) (Tadpole): None | IC50 [2]: 14500 nM

COC[C@]12CC[C@@H](O)C[C@@H]1CC[C@H]1[C@@H]3CC[C@H](C(C)=O)[C@@]3(C)CC[C@@H]12 [17, MQ-93, (3α,5α)-3-Hydroxy-19-methoxypregnan-20-one]
oocyte electrophysiology, ratio of currents in presence/absence of compound, 0.1 μM [1]: 2.15 ± 0.19 | oocyte electrophysiology, ratio of currents in presence/absence of compound, 1 μM [1]: 12.8 ± 1.74 | oocyte electrophysiology, ratio of currents in presence/absence of compound, 10 μM [1]: 33.8 ± 5.44 | (gating) 10 μM, ratio of compound only current/2 μM GABA current [1]: 0.23 ± 0.07 | Duration of Rat LRR (male Sprague Dawley rats; rat dose 15 mg/kg): C (C >20 min) | IC50 [2]: 47 ± 4 nM

COC[C@]12CC[C@@H](O)C[C@@H]1CC[C@H]1[C@@H]3CC[C@H](C#N)[C@@]3(C)CC[C@@H]12 [16, MQ-92, (3α,5α,17β)-3-Hydroxy-19-methoxyandrostane-17-carbonitrile]
oocyte electrophysiology, ratio of currents in presence/absence of compound, 0.1 μM [1]: 1.52 ± 0.02 | oocyte electrophysiology, ratio of currents in presence/absence of compound, 1 μM [1]: 9.79 ± 0.53 | oocyte electrophysiology, ratio of currents in presence/absence of compound, 10 μM [1]: 25.7 ± 2.11 | (gating) 10 μM, ratio of compound only current/2 μM GABA current [1]: 0.25 ± 0.11 | Duration of Dog Lateral Recumbence (male beagle dogs): B (B 10-20 min) | Duration of Rat LRR (male Sprague Dawley rats; rat dose 5 mg/kg): B (B 10-20 min) | IC50 [2]: 63 ± 7 nM

COC[C@]12CC[C@H](O)CC1=CC[C@@H]1[C@@H]2CC[C@]2(C)[C@@H](OC)CC[C@@H]12 [26, MQ-100, (3β,17β)-17,19-Dimethoxyandrost-5-en-3-ol]
oocyte electrophysiology, ratio of currents in presence/absence of compound, 0.1 μM [1]: 0.83 ± 0.03 | oocyte electrophysiology, ratio of currents in presence/absence of compound, 1 μM [1]: 0.76 ± 0.02 | oocyte electrophysiology, ratio of currents in presence/absence of compound, 10 μM [1]: 0.78 ± 0.02 | (gating) 10 μM, ratio of compound only current/2 μM GABA current [1]: 0.02 ± 0.02 | Tadpole LRR EC50 (μM) (Tadpole): None | Tadpole LSR EC50 (μM) (Tadpole): None | IC50 [2]: 17800 nM

COC[C@]12CC[C@@H](O)C[C@@H]1CC[C@H]1[C@@H]3CC[C@H](OC)[C@@]3(C)CC[C@@H]12 [8, MQ-89, (5α,17β)-17,19-Dimethoxyandrostan-3-ol]
oocyte electrophysiology, ratio of currents in presence/absence of compound, 0.1 μM [1]: 1.65 ± 0.08 | oocyte electrophysiology, ratio of currents in presence/absence of compound, 1 μM [1]: 7.63 ± 0.77 | oocyte electrophysiology, ratio of currents in presence/absence of compound, 10 μM [1]: 20.9 ± 2.73 | (gating) 10 μM, ratio of compound only current/2 μM GABA current [1]: 0.22 ± 0.01 | Duration of Dog Lateral Recumbence (male beagle dogs): C (C >20 min) | Duration of Rat LRR (male Sprague Dawley rats; rat dose 15 mg/kg): C (C >20 min) | IC50 [2]: 56 ± 2 nM

COC[C@]12CC[C@@H](O)CC1=CC[C@@H]1[C@@H]2CC[C@]2(C)[C@@H](OC)CC[C@@H]12 [25, MQ-101, (3α,17β)-17,19-Dimethoxyandrost-5-en-3-ol]
oocyte electrophysiology, ratio of currents in presence/absence of compound, 0.1 μM [1]: 0.94 ± 0.07 | oocyte electrophysiology, ratio of currents in presence/absence of compound, 1 μM [1]: 1.97 ± 0.08 | oocyte electrophysiology, ratio of currents in presence/absence of compound, 10 μM [1]: 15.7 ± 0.90 | (gating) 10 μM, ratio of compound only current/2 μM GABA current [1]: 0.08 ± 0.07 | IC50 [2]: 583 ± 71 nM
